{"source": "patent US20240285553A1", "about": "“METHODS TO MODULATE MITOPHAGY WITH SREBP SIGNALING PATHWAY ACTIVATORS” (THE TRUSTEES OF INDIANA UNIVERSITY, priority 2021, published 2024)", "key": {"[1]": {"system": "pulmonary arterial endothelial cells (PAECs)", "test": "Western blot of mitochondrial marker TOM20 as measure of mitophagy", "format": "cell-based, human", "conditions": "ECs / PAEC", "from_the_text": "(§1) Western blot. Cell lysates were resolved on a SDS PAGE pre-cast gel (Invitrogen) and resolved proteins were transferred on to a PVDF membrane for further detection of proteins using specific antibodies. Antibodies for SREBP1 were purchased from Santa Cruz Biotechnology (Cat #sc-365513) and Novus biological (Cat #NB100-2215). SCD antibody was purchased from Santa Cruz Biotechnology (Cat #sc-58420). Tom20 and LAMP1 antibodies were purchased from Cell Signaling (Cat #42406S and 15665S, respectively).\n(§2) First, degradation of a mitochondrial marker (TOM20) was evaluated as a bio-chemical marker of mitophagy induction."}, "PAEC / ECs": {"system": "PAEC / ECs", "test": "Immunofluorescence microscopy of Tom20 and lysosomal marker LAMP1 (mitophagy)", "format": "cell-based, human", "conditions": "ECs", "from_the_text": "Immunofluorescence Microscopy. Cells were fixed with 4% Formaldehyde (Electron Microscopy Sciences, #C993M24) and permeabilized in the presence of 0.1% Triton X-100 (Sigma). Full-length SREBP1 was stained using mouse monoclonal antibody from Santa Cruz Biotechnology (Cat #sc-365513). Whereas nuclear SREBP1 was detected using antibody from Novus biological (Cat #NB100-2215). […] Tom20 and LAMP1 antibodies were purchased from Cell Signaling (Cat #42406S and 15665S, respectively). Images were captured on an inverted fluorescent microscope (Leica).\nas §2\nFixed cells were stained with Tom20 and Lamp1 and the fluorescence images were captured on a fluorescence microscope."}, "ECs": {"system": "ECs", "test": "Transmission electron microscopy for mitophagy", "format": "cell-based, human", "conditions": "10 uM propranolol, 10 uM R-propranolol or 0.1 uM JW480 for 12 hours", "method": "Transmission Electron Microscopy. […] Thin sections from these fixed cell blocks were visualized on Tecnai Spirit (ThermoFisher) TEM Microscope. Images captured were analyzed.\nTEM evidence. […] ECs exposed to these drugs were fixed and the images were captured on a TEM."}, "SREBP1": {"system": "SREBP1", "test": "Western blot of SREBP1, SCD and NCEH1 (SREBP1 activation)", "format": "cell-based, human", "conditions": "western blot", "from_the_text": "as §1, with “respectively). […]” for “respectively).”"}, "[2]": {"system": "Sugen/hypoxia-induced PAH in rats", "test": "Sugen/hypoxia (SuHx) rat model of PAH", "format": "in vivo", "method": "FIGS. 10A-10C-R-propranolol attenuates rodent PAH. Sugen (20 mg/kg, IP) injection was administered to rats and then they were exposed to 3 weeks of hypoxia (10% FiO2) and then placed in normoxia (21% FiO2) for 4 weeks to develop severe pulmonary arterial hypertension (FIG. 10A is a schematic of the experimental procedure). Rats were then administered either r-propranolol (5 mg/kg/day, IP) for the last 4 weeks or r-propranolol (10 mg/kg/day, IP) for the last 2 weeks or vehicle for the last 4 weeks. Rats with vehicle exposure developed severe PAH at the end of the protocol as confirmed by right ventricular systolic pressures (RVSP; FIG. 10B) and surrogate measures of RV hypertrophy (RV/(LV+S); FIG. 10C).\nFIGS. 15A-15M-R-propranolol attenuates rodent PAH. Sugen (20 mg/kg, IP) injection was administered to rats and then they were exposed to 3 weeks of hypoxia (10% FiO2) and then placed in normoxia (21% FiO2) for 4 weeks to develop severe pulmonary arterial hypertension (FIG. 15A is a schematic of the experimental procedure). Rats receiving Sugen (SuHx) for three weeks of 7 weeks were then administered either r-propranolol (5 mg/kg/day, IP) for the last 4 weeks or r-propranolol (10 mg/kg/day, IP) for the last 2 weeks or vehicle for the last 4 weeks. SuHx treated rats (but not controls) with vehicle exposure developed severe PAH at the end of the protocol as confirmed by right ventricular pressures (RVP; FIG. 15B) and right ventricular systolic pressures (RVSP; FIG. 15C, lane 1: control; lane 2: control+r-propranolol 5 mg; lane 3: SuHx 3 wk; lane 4: SuHx 7 wk; lane 5: SuHx+r-propranolol 5 mg; SuHx+r-propranolol 10 mg) and surrogate measures of RV hypertrophy (FIGS. 15D-15J). […] FIG. 15K show the PA thickness of SuHx treated rats with vehicle exposure vs r-propranolol exposure. FIG. 15L show the RV cross-sectional thickness of SuHx treated rats with vehicle exposure vs r-propranolol exposure.\nR-propranolol attenuated rodent PAH. Rats were administered a one-time sugen (20 mg/kg, IP) injection and exposed to 3 weeks of hypoxia (10% FiO2) and then placed in normoxia (21% FiO2) for 4 weeks. […] In the last 4 week normoxic period, rats were administered either r-propranolol (5 mg/kg/day, IP) for the last 4 weeks or r-propranolol (10 mg/kg/day, IP) for the last 2 weeks or vehicle for the last 4 weeks. Rats with vehicle exposure developed severe PAH at the end of the protocol as confirmed by right ventricular systolic pressures (RVSP) and surrogate measures of RV hypertrophy (RV/(LV+S))."}, "HF-PH mice": {"system": "HF-PH mice", "test": "High-fat diet AKR/J HF-PH mouse model", "format": "in vivo", "conditions": "4 weeks, implanted mini osmotic pump, vs vehicle", "from_the_text": "FIG. 14: Using a mouse model fed a high-fat diet, AKR/J mice develop obesity, insulin resistance, heart failure with preserved ejection fraction, and pulmonary hypertension and are designated as “HF-PH mice”.\nUsing a mouse model fed a high-fat diet (Research Diets, New Brunswick, NJ) for 16-20 weeks, AKR/J mice (Jackson Laboratories, Bar Harbor, ME) develop obesity, insulin resistance, heart failure with preserved ejection fraction, and pulmonary hypertension. (Meng, et al., 2017; Arwood, et al., 2019)."}, "beta-adrenergic receptor": {"system": "beta-adrenergic receptor", "conditions": "cited from earlier work"}, "[3]": {"conditions": "5 mg/kg/day IP for the last 4 weeks"}, "[4]": {"conditions": "10 mg/kg/day IP for the last 2 weeks"}}, "note": "Entries after “also recorded” stand apart in the source; their conditions may differ."}
{"smiles": "CC(C)NC[C@@H](O)COc1cccc2ccccc12", "note": "[R-propranolol]", "values": [{"measurement": "Tom20 levels (mitophagy)", "setting": "[1]", "result": "decreased Tom20 levels; also recorded: lower"}, {"measurement": "mitophagy by immunofluorescence (Tom20/Lamp1)", "setting": "PAEC / ECs", "result": "induce mitophagy; also recorded: Tom20 was mobilized to lysosome"}, {"measurement": "mitophagy by TEM (bilipid membrane formation around mitochondria)", "setting": "ECs", "result": "promoted mitophagy"}, {"measurement": "SCD (SREBP1 target) levels", "setting": "SREBP1; ECs / PAEC", "result": "elevated"}, {"measurement": "SREBP1 levels (non-cleaved; decrease indicates cleavage and activation)", "setting": "SREBP1; ECs / PAEC", "result": "reduce SREBP1 levels"}, {"measurement": "NCEH1 levels", "setting": "SREBP1; ECs", "result": "higher"}, {"measurement": "RV hypertrophy (RV/(LV+S))", "setting": "[2]; [3]", "result": "trended toward improvement"}, {"measurement": "RVSP", "setting": "[2]; [3]", "result": "trended toward improvement"}, {"measurement": "RV hypertrophy (RV/(LV+S))", "setting": "[2]; [4]", "result": "attenuated"}, {"measurement": "RVSP", "setting": "[2]; [4]", "result": "attenuated"}, {"measurement": "right ventricular systolic pressure", "setting": "HF-PH mice", "result": "significantly decreased"}, {"measurement": "beta-adrenergic receptor affinity, fold less than propranolol", "setting": "beta-adrenergic receptor", "result": 100, "unit": "fold"}]}
